The record followed here is US20230075925A1, “NON-PERIPHERAL QUATERNARY AMMONIUM-MODIFIED ZINC PHTHALOCYANINE AND PREPARATION METHOD AND USE THEREOF” (FUZHOU UNIVERSITY, priority 2020, published 2023).

The test system of data set [1] is melanoma cells B16-F10 tumors (proximal and distal). Kind of data set: PDT / anti-PD-L1 combination therapy in bilateral B16-F10 tumor-bearing mouse model (tumor inhibition rate). Type of data set: in vivo. The settings on record: for tumor inhibition rate on proximal tumors (illuminated tumors): PDT group (phthalocyanine+illumination), 100 μL of 200 μM, 685 nm 15 mW/cm^2 5 min, 14 days. The method, then:
A bilateral tumor-bearing mouse model of melanoma cells B16-F10 (proximal and distal) was established. During PDT, the proximal referred to an illuminated side, and the distal referred to a non-illuminated side. The distribution and metabolism of photosensitizers in the tumor-bearing mouse were investigated by a small animal fluorescence imager and a tissue extraction method, and PDT was conducted under optimal conditions. The following 5 groups of experiments were set up, with 5 mice in each group: a PBS control group; an anti-PD-L1 antibody treatment group; a simple phthalocyanine (no illumination) treatment group; a phthalocyanine+illumination treatment group, namely a PDT group; and a phthalocyanine+illumination+anti-PD-L1 antibody treatment group, namely a combination therapy group. The anti-PD-L1 antibody was purchased from BioX cell.
In the combination therapy group, the PDT group and the simple photosensitizer group, 100 μL of a phthalocyanine compound (at a concentration of 200 μM, diluted with 0.5% CEL) was administered to each mouse. The combination therapy group and the PDT group were irradiated by a laser with a wavelength of 685 nm (at an irradiation power of 15 mW/cm^2 for 5 min) on the right tumor (proximal tumor) 8 h to 12 h after the administration. The combination therapy group was administered at 50 μg of PD-L1 antibody/mouse immediately after laser treatment, and the antibody group was administered 50 μg of PD-L1 antibody/mouse at the same time. One treatment was given on the first and fourth day separately.
From the first treatment, a body weight and a tumor volume of all mice were measured every other day, and a tumor size was calculated according to a formula: tumor volume=tumor length×width×height×π/6; after 14 consecutive days of observation, a tumor inhibition rate of each experimental group was calculated.

For the next data set, the system named is B16-F10 cells. Kind of data set: Tumor recurrence (immune memory) after re-injection of B16-F10 cells following combination therapy. Type of data set: in vivo, ICR mouse. The settings on record: combination with PD-L1 antibody; 1×10^6 B16-F10 cells injected on 7th day after therapy, observed 21 d, 5 mice. From the text:
More importantly, the mice treated with a combination of the zinc phthalocyanine in Example 1 and the PD-L1 antibody have an immune memory effect, which can effectively prevent tumor recurrence. On a 7th day after the combination therapy of zinc phthalocyanine in Example 1 and PD-L1 antibody, 1×10^6 B16-F10 cells were subcutaneously injected into a left ventral side of each ICR mouse (5 mice in each group), and the mice were continued to be observed for 21 d. […] However, the mice in remaining control groups are observed to have obvious melanoma regrowth, and no ability is observed to prevent tumor recurrence.

Data set [2] deals with human cervical cancer cells Hela. As to the kind of experiment: Dark toxicity and photodynamic activity on Hela cells (MTT cell viability). The settings on record: 4 μM. The format is cell-based. The protocol:
The non-peripheral quaternary ammonium-modified zinc phthalocyanine prepared in Example 1 was dissolved in a 1% castor oil derivative (Cremophor EL, wt %) aqueous solution to prepare a 0.1 mM photosensitizer. The dark toxicity and photodynamic activity of the photosensitizer were tested on human cervical cancer cells Hela.
0.1 mM or 0.2 mM of the photosensitizer was diluted into a cell medium to prepare a cell medium containing zinc phthalocyanine complexes at different concentrations. The cancer cells were cultured in the medium containing different concentrations of zinc phthalocyanine complexes for 2 h; after staining, the medium was discarded; and after washing with PBS, the cells were added into a new medium (without zinc phthalocyanine complexes). Illumination experiment group: the cells were irradiated with red light for 30 min at a power of irradiated light at 15 mW cm^−2 using red light with a wavelength greater than 600 nm as an excitation light source; non-illumination control group: the cells were placed in the dark for 30 min. After illumination or non-illumination, a cell viability was examined by MTT. The specific experimental steps referred to “Bioorganic & Medicinal Chemistry Letters, 2006, 16, 2450-2453”. […]

With “1-[4-(aminoethyl)phenoxy] zinc phthalocyanine [Comparative Example 1, reference compound]”, in data set [1], the “tumor inhibition rate on proximal tumors (illuminated tumors)” value is reported as 69%.
On to `C[N+](C)(C)CCc1ccc(Oc2cccc3c4nc5nc(nc6nc(nc7[n-]c(nc([n-]4)c23)c2ccccc72)-c2ccccc2-6)-c2ccccc2-5)cc1.[I-].[Zn+2]` [Example 1, 1-[4-(N,N,N-trimethyl-2-aminoethyl)phenoxy] zinc phthalocyanine iodide], for which the “effective rate in preventing recurrence” value in the data set on B16-F10 cells stood at 80%. The “tumor inhibition rate on proximal tumors (illuminated tumors)” value in data set [1] is listed as 51%. In data set [1] (combination therapy group: phthalocyanine+illumination+anti-PD-L1 antibody (50 μg/mouse)), the “tumor inhibition rate on distal tumors (unilluminated tumors)” value was determined as 90%. Further, the “effect on in situ tumors” value in data set [1] (combined with immune checkpoint blocker PD-L1 antibody) was “completely remove in situ tumors”. In addition, the “cancer cells killed under red light irradiation” value in data set [2] (red light 15 mW cm^−2 for 30 min) was 100%. Besides, in data set [2] (without irradiation, 2 h incubation), the “dark toxicity (killing and growth inhibition of Hela cells without irradiation)” value is “no dark toxicity”.
